In ChEMBL document CHEMBL2413072, “Synthesis and in vitro anticancer studies of novel C-2 arylidene congeners of lantadenes” (2013):
Activity calls are given as the source filed them. No cut-off for these calls is given here.

Key:
Format in all cases: functional
K562 [1] = test: Growth inhibition of human K562 cells assessed as cell growth at 10 uM by sulforhodamine B assay; conditions: read-out: Activity
SN12C [2] = test: Growth inhibition of human SN12C cells assessed as growth inhibition at 10 uM by sulforhodamine B assay; conditions: read-out: GI
M14 [3] = test: Growth inhibition of human M14 cells assessed as growth inhibition at 10 uM by sulforhodamine B assay; conditions: read-out: GI
SNB-19 = test: Growth inhibition of human SNB19 cells assessed as growth inhibition at 10 uM by sulforhodamine B assay; conditions: read-out: GI
SF-268 = test: Growth inhibition of human SF268 cells assessed as growth inhibition at 10 uM by sulforhodamine B assay; conditions: read-out: GI
KM12 = test: Growth inhibition of human KM12 cells assessed as growth inhibition at 10 uM by sulforhodamine B assay; conditions: read-out: GI
COLO 205 = test: Growth inhibition of human COLO205 cells assessed as growth inhibition at 10 uM by sulforhodamine B assay; conditions: read-out: GI
NCI-H522 [4] = test: Growth inhibition of human NCI-H522 cells assessed as growth inhibition at 10 uM by sulforhodamine B assay; conditions: read-out: GI
NCI-H322M = test: Growth inhibition of human NCI-H322M cells assessed as growth inhibition at 10 uM by sulforhodamine B assay; conditions: read-out: GI
[5] = Growth inhibition of human EKVX cells assessed as growth inhibition at 10 uM by sulforhodamine B assay; conditions: read-out: GI
K562 [6] = test: Growth inhibition of human K562 cells assessed as growth inhibition at 10 uM by sulforhodamine B assay; conditions: read-out: GI
HL-60(TB) [7] = test: Growth inhibition of human HL-60(TB) cells assessed as growth inhibition at 10 uM by sulforhodamine B assay
BT-549 = test: Growth inhibition of human BT549 cells assessed as cell growth at 10 uM by sulforhodamine B assay; conditions: read-out: Activity
MDA-MB-231 = test: Growth inhibition of human MDA-MB-231 cells assessed as cell growth at 10 uM by sulforhodamine B assay; conditions: read-out: Activity
SN12C [8] = test: Growth inhibition of human SN12C cells assessed as cell growth at 10 uM by sulforhodamine B assay; conditions: read-out: Activity
RXF 393 = test: Growth inhibition of human RXF393 cells assessed as cell growth at 10 uM by sulforhodamine B assay; conditions: read-out: Activity
SK-MEL-28 [9] = test: Growth inhibition of human SK-MEL-28 cells assessed as cell growth at 10 uM by sulforhodamine B assay; conditions: read-out: Activity
SW-620 = test: Growth inhibition of human SW620 cells assessed as cell growth at 10 uM by sulforhodamine B assay; conditions: read-out: Activity
NCI-H522 [10] = test: Growth inhibition of human NCI-H522 cells assessed as cell growth at 10 uM by sulforhodamine B assay; conditions: read-out: Activity
NCI-H226 = test: Growth inhibition of human NCI-H226 cells assessed as cell growth at 10 uM by sulforhodamine B assay; conditions: read-out: Activity
A549 [11] = test: Growth inhibition of human A549/ATCC cells assessed as cell growth at 10 uM by sulforhodamine B assay; conditions: read-out: Activity
RPMI-8226 [12] = test: Growth inhibition of human RPMI8226 cells assessed as cell growth at 10 uM by sulforhodamine B assay; conditions: read-out: Activity
SNB-75 = test: Growth inhibition of human SNB75 cells assessed as cell growth at 10^-8 M by sulforhodamine B assay; conditions: read-out: Activity
SF-295 = test: Growth inhibition of human SF295 cells assessed as cell growth at 10^-8 M by sulforhodamine B assay; conditions: read-out: Activity
HCT-15 = test: Growth inhibition of human HCT15 cells assessed as cell growth at 10^-8 M by sulforhodamine B assay; conditions: read-out: Activity
A549 [13] = test: Growth inhibition of human A549/ATCC cells assessed as cell growth at 10^-8 M by sulforhodamine B assay; conditions: read-out: Activity
RPMI-8226 [14] = test: Growth inhibition of human RPMI8226 cells assessed as cell growth at 10^-8 M by sulforhodamine B assay; conditions: read-out: Activity
Malme-3M = test: Growth inhibition of human MALME-3M cells by sulforhodamine B assay
LOX IMVI = test: Growth inhibition of human LOXIMVI cells by sulforhodamine B assay
SF-539 = test: Growth inhibition of human SF539 cells assessed as cell growth at 10^-4 M by sulforhodamine B assay; conditions: read-out: Activity
HCT-116 [15] = test: Growth inhibition of human HCT116 cells assessed as cell growth at 10^-4 M by sulforhodamine B assay; conditions: read-out: Activity
NCI-H23 [16] = test: Growth inhibition of human NCI-H23 cells assessed as cell growth at 10^-4 M by sulforhodamine B assay; conditions: read-out: Activity
RPMI-8226 [17] = test: Growth inhibition of human RPMI8226 cells assessed as cell growth at 10^-4 M by sulforhodamine B assay; conditions: read-out: Activity
HL-60(TB) [18] = test: Growth inhibition of human HL-60(TB) cells assessed as cell growth at 10^-4 M by sulforhodamine B assay; conditions: read-out: Activity
ACHN = test: Growth inhibition of human ACHN cells assessed as cell growth at 10^-6 M by sulforhodamine B assay; conditions: read-out: Activity
786-0 = test: Growth inhibition of human 786-0 cells assessed as cell growth at 10^-6 M by sulforhodamine B assay; conditions: read-out: Activity
IGROV-1 = test: Growth inhibition of human IGROV1 cells assessed as cell growth at 10^-6 M by sulforhodamine B assay; conditions: read-out: Activity
SK-MEL-2 = test: Growth inhibition of human SK-MEL-2 cells assessed as cell growth at 10^-6 M by sulforhodamine B assay; conditions: read-out: Activity
MDA-MB-435 = test: Growth inhibition of human MDA-MB-435 cells assessed as cell growth at 10^-6 M by sulforhodamine B assay; conditions: read-out: Activity
MDA-MB-468 = test: Growth inhibition of human MDA-MB-468 cells assessed as cell growth at 10^-7 M by sulforhodamine B assay; conditions: read-out: Activity
SK-MEL-28 [19] = test: Growth inhibition of human SK-MEL-28 cells assessed as cell growth at 10^-7 M by sulforhodamine B assay; conditions: read-out: Activity
M14 [20] = test: Growth inhibition of human M14 cells assessed as cell growth at 10^-7 M by sulforhodamine B assay; conditions: read-out: Activity
HCT-116 [21] = test: Growth inhibition of human HCT116 cells assessed as cell growth at 10^-7 M by sulforhodamine B assay; conditions: read-out: Activity
NCI-H23 [22] = test: Growth inhibition of human NCI-H23 cells assessed as cell growth at 10^-7 M by sulforhodamine B assay; conditions: read-out: Activity
[23] = Growth inhibition of human Hs 578T cells assessed as cell growth at 10^-8 M by sulforhodamine B assay; conditions: read-out: Activity
[24] = Growth inhibition of human NCI-ADR-RES cells assessed as cell growth at 10^-8 M by sulforhodamine B assay; conditions: read-out: Activity
[25] = read-out: LC50 (the source's name)
[26] = read-out: pLC50 (the source's name) (converted)

## CC(C)=CC(=O)O[C@@H]1CC(C)(C)C[C@H]2C3=CC[C@@H]4[C@@]5(C)CCC(=O)C(C)(C)[C@@H]5CC[C@@]4(C)[C@]3(C)CC[C@@]12C(=O)O
K562 [1]
  growth at 10 µM: 45%
SN12C [2]
  inhibition of growth at 10 µM: 57.4%
M14 [3]
  inhibition of growth at 10 µM: 19.7%
SNB-19
  inhibition of growth at 10 µM: 42.7%
SF-268
  inhibition of growth at 10 µM: 27%
KM12
  inhibition of growth at 10 µM: 69.6%
COLO 205
  inhibition of growth at 10 µM: 29%
NCI-H522 [4]
  inhibition of growth at 10 µM: 42.7%
NCI-H322M
  inhibition of growth at 10 µM: 46%
[5]
  inhibition of growth at 10 µM: 58.8%
K562 [6]
  inhibition of growth at 10 µM: 55%
HL-60(TB) [7]; read-out: GI
  inhibition of growth at 10 µM: 89.8%
BT-549
  growth at 10 µM: 69.6%
MDA-MB-231
  growth at 10 µM: 71.5%
SN12C [8]
  growth at 10 µM: 42.6%
RXF 393
  growth at 10 µM: 84.6%
SK-MEL-28 [9]
  growth at 10 µM: 91.2%
SW-620
  growth at 10 µM: 62.7%
NCI-H522 [10]
  growth at 10 µM: 57.3%
NCI-H226
  growth at 10 µM: 78.2%
A549 [11]
  growth at 10 µM: 22.2%
RPMI-8226 [12]
  growth at 10 µM: 19.6%
SNB-75
  growth at 0.01 µM: 90%
SF-295
  growth at 0.01 µM: 86%
HCT-15
  growth at 0.01 µM: 93%
A549 [13]
  growth at 0.01 µM: 93%
RPMI-8226 [14]
  growth at 0.01 µM: 101%
Malme-3M; read-out: GI50
  GI50: 11.4 µM
Malme-3M; [25]
  CC50: > 100 µM
Malme-3M; read-out: TGI
  TGI: 81 µM
Malme-3M; read-out: pGI50 (converted)
  GI50: 11.5 µM
Malme-3M; [26]
  CC50: > 100 µM
Malme-3M; read-out: pTGI (converted)
  TGI: 81.3 µM
LOX IMVI; read-out: GI50
  GI50: 6.32 µM
LOX IMVI; [25]
  CC50: > 100 µM
LOX IMVI; read-out: TGI
  TGI: 29.3 µM
LOX IMVI; read-out: pGI50 (converted)
  GI50: 6.31 µM
LOX IMVI; [26]
  CC50: > 100 µM
LOX IMVI; read-out: pTGI (converted)
  TGI: 29.5 µM
SF-539
  growth at 100 µM: -50%
HCT-116 [15]
  growth at 100 µM: -6%
NCI-H23 [16]
  growth at 100 µM: -10%
RPMI-8226 [17]
  growth at 100 µM: -19%
HL-60(TB) [18]
  growth at 100 µM: -38%
ACHN
  growth at 1 µM: 73%
786-0
  growth at 1 µM: 92%
IGROV-1
  growth at 1 µM: 98%
SK-MEL-2
  growth at 1 µM: 85%
MDA-MB-435
  growth at 1 µM: 92%
MDA-MB-468
  growth at 0.1 µM: 89%
SK-MEL-28 [19]
  growth at 0.1 µM: 99%
M14 [20]
  growth at 0.1 µM: 94%
HCT-116 [21]
  growth at 0.1 µM: 98%
NCI-H23 [22]
  growth at 0.1 µM: 90%
[23]
  growth at 0.01 µM: 96%
[24]
  growth at 0.01 µM: 103%

## C/C=C(/C)C(=O)O[C@@H]1CC(C)(C)C[C@H]2C3=CC[C@@H]4[C@@]5(C)CCC(=O)C(C)(C)[C@@H]5CC[C@@]4(C)[C@]3(C)CC[C@@]12C(=O)O [LANTADENE A]
K562 [1]
  growth at 10 µM: 44.1%
SN12C [2]
  inhibition of growth at 10 µM: 47.6%
M14 [3]
  inhibition of growth at 10 µM: 36.2%
SNB-19
  inhibition of growth at 10 µM: 40.6%
SF-268
  inhibition of growth at 10 µM: 25.9%
KM12
  inhibition of growth at 10 µM: 60%
COLO 205
  inhibition of growth at 10 µM: 22%
NCI-H522 [4]
  inhibition of growth at 10 µM: 33.9%
NCI-H322M
  inhibition of growth at 10 µM: 31.4%
[5]
  inhibition of growth at 10 µM: 50.7%
K562 [6]
  inhibition of growth at 10 µM: 55.9%
HL-60(TB) [7]
  growth inhibition (GI): Active
BT-549
  growth at 10 µM: 44%
MDA-MB-231
  growth at 10 µM: 75.7%
SN12C [8]
  growth at 10 µM: 52.4%
RXF 393
  growth at 10 µM: 88.5%
SK-MEL-28 [9]
  growth at 10 µM: 82.7%
SW-620
  growth at 10 µM: 68.7%
NCI-H522 [10]
  growth at 10 µM: 66.1%
NCI-H226
  growth at 10 µM: 82%
A549 [11]
  growth at 10 µM: 39.2%
RPMI-8226 [12]
  growth at 10 µM: 16.6%
SNB-75
  growth at 0.01 µM: 86%
SF-295
  growth at 0.01 µM: 96%
HCT-15
  growth at 0.01 µM: 100%
A549 [13]
  growth at 0.01 µM: 94%
RPMI-8226 [14]
  growth at 0.01 µM: 102%
Malme-3M; read-out: GI50
  GI50: 7.91 µM
Malme-3M; [25]
  CC50: > 100 µM
Malme-3M; read-out: TGI
  TGI: > 100 µM
Malme-3M; read-out: pGI50 (converted)
  GI50: 7.94 µM
Malme-3M; [26]
  CC50: > 100 µM
Malme-3M; read-out: pTGI (converted)
  TGI: > 100 µM
LOX IMVI; read-out: GI50
  GI50: 7.8 µM
LOX IMVI; [25]
  CC50: > 100 µM
LOX IMVI; read-out: TGI
  TGI: > 100 µM
LOX IMVI; read-out: pGI50 (converted)
  GI50: 7.76 µM
LOX IMVI; [26]
  CC50: > 100 µM
LOX IMVI; read-out: pTGI (converted)
  TGI: > 100 µM
SF-539
  growth at 100 µM: 17%
HCT-116 [15]
  growth at 100 µM: 11%
NCI-H23 [16]
  growth at 100 µM: 12%
RPMI-8226 [17]
  growth at 100 µM: 10%
HL-60(TB) [18]
  growth at 100 µM: -38%
ACHN
  growth at 1 µM: 92%
786-0
  growth at 1 µM: 93%
IGROV-1
  growth at 1 µM: 108%
SK-MEL-2
  growth at 1 µM: 108%
MDA-MB-435
  growth at 1 µM: 90%
MDA-MB-468
  growth at 0.1 µM: 83%
SK-MEL-28 [19]
  growth at 0.1 µM: 95%
M14 [20]
  growth at 0.1 µM: 91%
HCT-116 [21]
  growth at 0.1 µM: 90%
NCI-H23 [22]
  growth at 0.1 µM: 99%
[23]
  growth at 0.01 µM: 97%
[24]
  growth at 0.01 µM: 104%
